Measurements as given in patent US10532028B2, “Method to improve characteristics of spray dried powders and granulated materials, and the products thereby produced” (ISP INVESTMENTS LLC, priority 2005, dated 2020).

How the values were obtained:
[1] = Crystallinity by (modulated) differential scanning calorimetry; type: physicochemical; conditions: MDSC, heat-only conditions, aluminum hermetic pans
Protocol: • 1. 1 part Carbamazepine (CBZ) was spray dried with 1 part polyvinylpyrrolidone (PVP) (Plasdone® K-29/32, International Specialty Products) and 1 part polyvinylpyrrolidone-co-vinyl acetate (PVP-VA) (Plasdone® S-630, International Specialty Products) from solvent and solvent/non-solvent solutions at 10% solids by weight. Solvent was dichloromethane (20%), non-solvent was acetone (80%). • 2. Spray drying was conducted on an SD-Micro® (Niro, Inc.) spray dryer under identical experimental conditions other than solvent composition. • 3. Results: • a. […] CBZ from solvent/non-solvent solution • 1) Particle morphology: spherical as shown in FIG. 2B. • 2) Particle size (from optical microscopy): 3 μm-5 μm • 3) Residual solvent immediately after spray drying: 2.0% • 4) Bulk density: 0.057 g/mL • 5) Density after 1250 taps: 0.18 g/mL • 6) Spherical morphology was unexpected, based on previous examples, expected particles to be dimpled, raisin-like, or folded.
• The two solutions were spray dried under identical conditions on an SD-Micro® (Niro, Inc.) spray dryer to yield spray dried powders. • 2. The two compositions were analyzed for EFV crystallinity using differential scanning calorimetry. Both powders were amorphous, as indicated by the absence of an EFV melt endotherm (FIG. 5). • 3. […]

[2] = CoQ10 USP dissolution, apparatus II (paddles); type: physicochemical; conditions: 37° C.
Text: • 1. Coenzyme Q10 (CoQ10) was spray dried with polyvinylpyrrolidone (PVP) (Plasdone® K-29/32, International Specialty Products) in the ratio 1 CoQ10:3 PVP at 20% total solids. Two spray dried powders were produced, one from 100% dichloromethane (DCM) and the other from a blend of 80% DCM, 20% acetone. CoQ10 is soluble in both DCM and acetone, while PVP is only soluble in DCM. All other spray drying conditions remained the same. • 2. Sample analysis included USP dissolution using apparatus II (paddles). All samples were hand-filled into size 1 gelatin capsules. The bath temperature was 37° C. with a paddle speed of 50 rpm for the first 60 minutes and then 200 rpm for an additional 15 minutes. The dissolution media contained 2% Cremophor® EL (BASF Corp.), and 4% Acconon® MC8 (Abitec Corp.). […] It is surprising that the time for 50% CoQ10 dissolution (t50%) was shortened from 18 minutes (100% solvent) to 5 minutes (solvent/non-solvent blend). Similarly, the time for 80% CoQ10 dissolution (t80%) was shortened from 68 minutes to 12 minutes by the switch from 100% solvent to the solvent/non-solvent blend. • 4. […] Other advantages of the solvent/non-solvent blend approach include lower residual solvent content and higher density.

[3] = Table 1, 75 minutes test, 2% Cremophor EL + 4% Acconon MC8

crystallinity [1]: 100%
max. CoQ10 release ([2]; 50 rpm for 60 min then 200 rpm for 15 min, 2% Cremophor EL + 4% Acconon MC8, size 1 gelatin capsules): 4.3%
T80% (time for 80% CoQ10 dissolution) [2, 3]: not attained
t50% (time for 50% CoQ10 dissolution) [2, 3]: not attained
Structure (SMILES): COC1=C(OC)C(=O)C(C/C=C(\C)CC/C=C(\C)CC/C=C(\C)CC/C=C(\C)CC/C=C(\C)CC/C=C(\C)CC/C=C(\C)CC/C=C(\C)CC/C=C(\C)CCC=C(C)C)=C(C)C1=O [CoQ10 (as received), Coenzyme Q10]
